From PMC7071059, “Targeting Receptor Tyrosine Kinase VEGFR-2 in Hepatocellular Cancer: Rational Design, Synthesis and Biological Evaluation of 1,2-Disubstituted Benzimidazoles” (Molecules, 2020)

What was measured:
HepG2 cells [1] = assay: Apoptosis assay, Annexin V-FITC/PI flow cytometry; type: cell-based, human; settings: 48 h; for early apoptotic phase (Q4): control 0.80%; for late apoptotic phase (Q2): control 4.59%
From the text: Moreover, in order to examine the effect of compound 17a on cell apoptosis (programed cell death), the morphological markers of apoptosis of the HepG2 cell line were examined before and after treatment with 17a. This assay is based on the fact that cells performing apoptosis translocate their phosphatidylserine (PS) phospholipid to the cell surface, which, in turn, can be easily detected by staining with a fluorescent conjugate of annexin V, followed by flow cytometry analysis. Concurrently, the HepG2 cells were stained with propidium iodide (PI), which enters only cells with damaged plasma membranes. This stain allows the discrimination between early apoptotic cells (positive for PS, but negative for PI) from late apoptotic and necrotic cells (positive for both PS and PI).
Apoptosis and necrosis cell populations were determined using an Annexin V-FITC apoptosis detection kit (Abcam Inc., Cambridge Science Park, Cambridge, UK) coupled with 2 fluorescent channels flowcytometry. After treatment with test compounds for 48 h, cells (10^5 cells) were collected by trypsinization and washed twice with ice-cold PBS (pH 7.4). Then, cells were incubated in the dark with 0.5 ml of Annexin V-FITC/PI solution for 30 min in the dark at room temperature, according to the manufacturer’s protocol. After staining, cells were injected via ACEA Novocyte™ flowcytometer (ACEA Biosciences Inc., San Diego, CA, USA) and analyzed for FITC and PI fluorescent signals using FL1 and FL2 signal detectors, respectively (λex/em 488/530 nm for FITC and λex/em 535/617 nm for PI). For each sample, 12,000 events were acquired, and positive FITC and/or PI cells were quantified by quadrant analysis and calculated using ACEA NovoExpress™ software (ACEA Biosciences Inc., San Diego, CA, USA).

FGFR-1 = FGFR-1 (Homo sapiens, UniProt P11362); assay: Biochemical kinase assay (Kinase-Glo Plus luminescence)
Chain of FGFR-1 (P11362 22-822): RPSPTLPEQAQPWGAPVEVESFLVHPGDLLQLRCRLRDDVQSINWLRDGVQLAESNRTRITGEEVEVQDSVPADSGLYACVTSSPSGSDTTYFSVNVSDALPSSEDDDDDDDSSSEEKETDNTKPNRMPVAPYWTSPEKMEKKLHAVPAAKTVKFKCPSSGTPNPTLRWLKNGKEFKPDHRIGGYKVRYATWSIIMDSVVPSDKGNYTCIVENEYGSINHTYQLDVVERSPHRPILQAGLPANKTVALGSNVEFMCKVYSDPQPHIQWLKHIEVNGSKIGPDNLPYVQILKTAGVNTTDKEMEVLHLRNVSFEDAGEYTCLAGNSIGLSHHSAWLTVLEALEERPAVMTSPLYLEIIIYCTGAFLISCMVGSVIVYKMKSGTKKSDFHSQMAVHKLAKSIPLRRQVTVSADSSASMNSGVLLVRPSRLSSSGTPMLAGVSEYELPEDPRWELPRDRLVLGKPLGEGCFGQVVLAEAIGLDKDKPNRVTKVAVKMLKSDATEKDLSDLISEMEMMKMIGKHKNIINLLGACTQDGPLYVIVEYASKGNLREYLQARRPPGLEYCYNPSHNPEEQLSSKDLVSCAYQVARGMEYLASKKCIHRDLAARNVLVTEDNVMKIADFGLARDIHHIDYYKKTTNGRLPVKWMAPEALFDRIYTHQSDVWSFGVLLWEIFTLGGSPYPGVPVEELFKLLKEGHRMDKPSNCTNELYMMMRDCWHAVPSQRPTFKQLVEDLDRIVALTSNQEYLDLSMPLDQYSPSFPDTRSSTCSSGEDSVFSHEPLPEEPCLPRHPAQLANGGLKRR
Protocol: (§1) This assay was carried out using the VEGFR-2 kinase enzyme system or FGFR-1 kinase enzyme system and Kinase-Glo Plus luminescence kinase (Promega) kits according to the manufacturers´ protocols. This assay evaluated the activity of kinase by measuring the amount of ATP remaining in solution after a kinase reaction. The luminescent signal from the assay was related to the quantity of ATP available, which was inversely proportional to the amount of kinase activity. […] Subsequently, serial dilutions were carried out, and 5 µL of the dilution was added to a 50 µL reaction. The enzymatic reactions were performed at 30 °C for 45 minutes. […] After the enzymatic reaction, 50 µL of Kinase-Glo Plus Luminescence kinase assay solution was added to each reaction, and the plates were incubated for 15 minutes at room temperature. The luminescence signal was measured using a Tecan–spark multimode microplate reader. The difference between luminescence intensities in the absence of Kinase (Lut) and in the presence of Kinase (Luc) was defined as 100% activity (Lut − Luc). Using a luminescence signal (Lu) in the presence of the compound, % activity was calculated as: % activity = {(Lut − Lu)/(Lut − Luc)}×100%, where Lu = the luminescence intensity in the presence of the compound.

HepG2 cells [2] = assay: Analysis of cell cycle distribution, flow cytometry of propidium iodide-stained nuclei; type: cell-based, human; settings: HepG2, 2 µM, 48 h
Protocol: Based on the promising antiproliferative activity and antiangiogenic activity of series 17, compound 17a was further assayed for its effect on the cell cycle distribution by flow cytometric analyses of propidium iodide-stained nuclei at 2 µM. Cell cycle parameters were compared for HepG2 cells with DMSO as control and after treatment with 17a and incubation for 48 h, and the results were depicted in Figure 8.
After treatment with test compounds for 48 h, cells (10^5 cells) were collected by trypsinization and washed twice with ice-cold PBS (pH 7.4). Cells were resuspended in two milliliters of 60% ice-cold ethanol and incubated at 4 °C for 1 h for fixation. Fixed cells were washed twice again with PBS (pH 7.4) and resuspended in 1 mL of PBS containing 50 µg/mL RNAase A and 10 µg/mL propidium iodide (PI). After 20 min of incubation in dark at 37 °C, cells were analyzed for DNA contents using flow cytometry analysis using an FL2 (λex/em 535/617 nm) signal detector (ACEA Novocyte™ flowcytometer, ACEA Biosciences Inc., San Diego, CA, USA). For each sample, 12,000 events were acquired. The cell cycle distribution was calculated using ACEA NovoExpress™ software (ACEA Biosciences Inc., San Diego, CA, USA).

PDGFR-β = PDGFR-β (Homo sapiens, UniProt P09619); assay: Biochemical kinase assay
Chain of PDGFR-β (P09619 33-1106): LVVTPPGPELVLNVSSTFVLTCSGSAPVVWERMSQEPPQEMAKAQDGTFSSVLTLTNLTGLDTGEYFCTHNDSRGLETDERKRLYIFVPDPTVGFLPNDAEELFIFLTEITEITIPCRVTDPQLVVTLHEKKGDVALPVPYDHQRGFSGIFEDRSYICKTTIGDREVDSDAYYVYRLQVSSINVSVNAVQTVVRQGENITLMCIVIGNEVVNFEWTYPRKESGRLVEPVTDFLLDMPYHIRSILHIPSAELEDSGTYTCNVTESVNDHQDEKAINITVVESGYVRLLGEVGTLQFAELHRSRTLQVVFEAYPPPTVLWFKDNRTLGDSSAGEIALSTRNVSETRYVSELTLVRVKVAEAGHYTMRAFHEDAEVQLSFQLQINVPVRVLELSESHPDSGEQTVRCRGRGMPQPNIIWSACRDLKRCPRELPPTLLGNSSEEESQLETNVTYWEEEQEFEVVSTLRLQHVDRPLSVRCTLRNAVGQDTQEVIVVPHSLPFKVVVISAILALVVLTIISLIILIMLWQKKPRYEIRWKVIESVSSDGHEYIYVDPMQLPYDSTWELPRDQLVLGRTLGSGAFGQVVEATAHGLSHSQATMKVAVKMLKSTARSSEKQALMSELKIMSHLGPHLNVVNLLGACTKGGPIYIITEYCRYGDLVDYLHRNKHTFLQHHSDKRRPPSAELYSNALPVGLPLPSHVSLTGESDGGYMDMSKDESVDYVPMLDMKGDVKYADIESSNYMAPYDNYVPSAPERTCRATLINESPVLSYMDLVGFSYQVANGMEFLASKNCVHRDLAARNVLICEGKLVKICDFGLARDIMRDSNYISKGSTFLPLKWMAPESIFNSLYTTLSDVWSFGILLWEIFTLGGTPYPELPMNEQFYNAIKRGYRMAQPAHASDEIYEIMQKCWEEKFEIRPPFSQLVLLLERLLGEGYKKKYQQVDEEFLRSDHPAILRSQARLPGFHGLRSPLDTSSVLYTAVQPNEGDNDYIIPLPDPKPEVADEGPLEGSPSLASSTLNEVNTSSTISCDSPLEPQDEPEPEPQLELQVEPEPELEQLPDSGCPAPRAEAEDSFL
Protocol: as §1

CC(C)c1nc2ccccc2n1CC(=O)N/N=C/c1cccc(OCc2ccccc2)c1 [Compound 17a, (E)-N′-(3-(Benzyloxy)benzylidene)-2-(2-isopropyl-1H-benzo[d]imidazol-1-yl)acetohydrazide]
early apoptotic phase (Q4) (HepG2 cells [1]; HepG2, 2 μM): 2.90%
late apoptotic phase (Q2) (HepG2 cells [1]; HepG2, 2 μM): 8.89%
early apoptotic phase (Q4) (HepG2 cells [1]; HepG2, 5 μM): 6.32%
late apoptotic phase (Q2) (HepG2 cells [1]; HepG2, 5 μM): 9.53%
IC50 (FGFR-1): 0.11 ± 0.004 µM
Freq S (HepG2 cells [2]): 26.96%
effect on the HepG2 cell cycle (HepG2 cells [2]): arrests the cell cycle at the G2/M phase
percent of cells accumulated in the G2 phase (Freq G2) (HepG2 cells [2]; control 13.43%): 25.86%
percent of cell distribution in the G1 phase (Freq G1) (HepG2 cells [2]; control 51.34%): 46.96%
IC50 (PDGFR-β): 0.05 ± 0.002 µM
